# Measurements taken from patent US6407042B1 (Monsanto Technology LLC, priority 1996, dated 2002).
# Experiments:
# [1] = test system: Japanese millet (Echinochloa crus-galli, ECHCF); test: Greenhouse test of herbicidal effectiveness (percent inhibition) on Japanese millet; assay type: in vivo
# Text: (§1) The herbicidal effectiveness data set forth herein report “inhibition” as a percentage following a standard procedure in the art which reflects a visual assessment of plant mortality and growth reduction by comparison with untreated plants, made by technicians specially trained to make and record such observations. In all cases, a single technician makes all assessments of percent inhibition within any one experiment or trial. Such measurements are relied upon and regularly reported by Monsanto Company in the course of its herbicide business.
# (§2) The following procedure was used for testing compositions of the Examples to determine herbicidal effectiveness, except where otherwise indicated.
# (§3) Seeds of the plant species indicated were planted in 85 mm square pots in a soil mix which was previously steam sterilized and prefertilized with a 14-14-14 NPK slow release fertilizer at a rate of 3.6 kg/m3. The pots were placed in a greenhouse with subirrigation. About one week after emergence, seedlings were thinned as needed, including removal of any unhealthy or abnormal plants. to create a uniform series of test pots.
# (§4) The plants were maintained for the duration of the test in the greenhouse where they received a minimum of 14 hours of light per day. If natural light was insufficient to achieve the daily requirement, artificial light with an intensity of approximately 475 microeinsteins was used to make up the difference. Exposure temperatures were not precisely controlled but averaged about 27° C. during the day and about 18° C. during the night. Plants were sub-irrigated throughout the test to ensure adequate soil moisture levels.
# (§5) A set of pots was left untreated as a reference against which effects of the treatments could later be evaluated.
# (§6) Application of glyphosate compositions was made by spraying with a track sprayer fitted with a 9501E nozzle calibrated to deliver a spray volume of 93 liters per hectare (l/ha) at a pressure of 166 kilopascals (kPa). After treatment, pots were returned to the greenhouse until ready for evaluation.
# (§7) Treatments were made using dilute aqueous compositions. These could be prepared as spray compositions directly from their ingredients, or by dilution with water of preformulated concentrate compositions.
# (§8) For evaluation of herbicidal effectiveness, all plants in the test were examined by a single practiced technician, who recorded percent inhibition, a visual measurement of the effectiveness of each treatment by comparison with untreated plants.
# [2] = test system: Prickly sida (Sida spinosa, SIDSP); test: Greenhouse test of herbicidal effectiveness (percent inhibition) on prickly sida; assay type: in vivo; settings: for % Inhibition SIDSP: evaluation 10 days after application
# Text: as §1, §2, §3, §4, §5, §6, §7, §8
# [3] = test system: Velvetleaf (Abutilon theophrasti, ABUTH); test: Greenhouse test of herbicidal effectiveness (percent inhibition) on velvetleaf; assay type: in vivo
# Text: as §1, §2, §3, §4, §5, §6, §7, §8
# [4] = test system: Common lambsquarter (Chenopodium album, CHEAL); test: Greenhouse test of herbicidal effectiveness (percent inhibition) on common lambsquarter; assay type: in vivo; settings: Example 20; 18 days after application
# Text: as §2, §3
# (§9) The plants were maintained for the duration of the test in the greenhouse where they received a minimum of 14 hours of light per day. […]
# as §5
# as §6, with “evaluation. […]” for “evaluation.”
# as §8
# [5] = test system: Hemp sesbania (Sesbania exaltata, SEBEX); test: Greenhouse test of herbicidal effectiveness (percent inhibition) on hemp sesbania; assay type: in vivo; settings: Example 18; 21 days after application
# Text: as §2, §3, §9, §5
# as §6, with “evaluation. […]” for “evaluation.”
# as §8
# ABUTH and ECHCF = test: Greenhouse test, herbicidal effectiveness overall on both species of the Example; assay type: in vivo, Abutilon theophrasti, Echinochloa crus-galli; settings: post-emergence foliar spray 93 l/ha, comparison as worded in the discussion of the Example
# Protocol: The following procedure was used for testing compositions of the Examples to determine herbicidal effectiveness, except where otherwise indicated. […] The pots were placed in a greenhouse with subirrigation. About one week after emergence, seedlings were thinned as needed, including removal of any unhealthy or abnormal plants. to create a uniform series of test pots. The plants were maintained for the duration of the test in the greenhouse where they received a minimum of 14 hours of light per day. […] Exposure temperatures were not precisely controlled but averaged about 27° C. during the day and about 18° C. during the night. Plants were sub-irrigated throughout the test to ensure adequate soil moisture levels. Pots were assigned to different treatments in a fully randomized experimental design with 3 replications. A set of pots was left untreated as a reference against which effects of the treatments could later be evaluated. […] After treatment, pots were returned to the greenhouse until ready for evaluation. Treatments were made using dilute aqueous compositions. […] For evaluation of herbicidal effectiveness, all plants in the test were examined by a single practiced technician, who recorded percent inhibition, a visual measurement of the effectiveness of each treatment by comparison with untreated plants.
# [6] = acifluorfen rate 25 g a.i./ha, evaluation 10 days after application
# [7] = acifluorfen rate 50 g a.i./ha, evaluation 10 days after application
# [8] = acifluorfen rate 100 g a.i./ha, evaluation 10 days after application
# [9] = acifluorfen rate 200 g a.i./ha, evaluation 10 days after application
# [10] = dicamba rate 25 g a.i./ha, evaluation 17 days after application
# [11] = dicamba rate 50 g a.i./ha, evaluation 17 days after application
# [12] = dicamba rate 100 g a.i./ha, evaluation 17 days after application
# [13] = dicamba rate 200 g a.i./ha, evaluation 17 days after application
compound,measurement,setting,value
O=C(O)c1cc(Oc2ccc(C(F)(F)F)cc2Cl)ccc1[N+](=O)[O-] [Acifluorfen (technical)],% Inhibition ECHCF,[1]; [6],2%
same,% Inhibition ECHCF,[1]; [7],7%
same,% Inhibition ECHCF,[1]; [8],18%
same,% Inhibition ECHCF,[1]; [9],35%
same,% Inhibition SIDSP,[2]; acifluorfen rate 25 g a.i./ha,15%
same,% Inhibition SIDSP,[2]; acifluorfen rate 50 g a.i./ha,17%
same,% Inhibition SIDSP,[2]; acifluorfen rate 100 g a.i./ha,35%
same,% Inhibition SIDSP,[2]; acifluorfen rate 200 g a.i./ha,40%
same,% Inhibition ABUTH,[3]; [6],20%
same,% Inhibition ABUTH,[3]; [7],32%
same,% Inhibition ABUTH,[3]; [8],52%
same,% Inhibition ABUTH,[3]; [9],62%
COC(=O)NS(=O)(=O)c1ccc(N)cc1 [Asulam (technical)],% Inhibition ECHCF,"[1]; asulam rate 200 g a.i./ha, evaluation 14 days after application",12%
COc1c(Cl)ccc(Cl)c1C(=O)O [Dicamba (technical)],% Inhibition ECHCF,[1]; [10],0%
same,% Inhibition ECHCF,[1]; [11],0%
same,% Inhibition ECHCF,[1]; [12],0%
same,% Inhibition ECHCF,[1]; [13],5%
same,% Inhibition ABUTH,[3]; [10],47%
same,% Inhibition ABUTH,[3]; [11],63%
same,% Inhibition ABUTH,[3]; [12],82%
same,% Inhibition ABUTH,[3]; [13],93%
"C[N+](C)(C)CCCNS(=O)(=O)C(F)(F)C(F)(F)C(F)(F)C(F)(F)C(F)(F)C(F)(F)C(F)(F)C(F)(F)F.[I-] [Fluorad FC-135, 3-(((heptadecafluorooctyl)sulfonyl)amino)-N,N,N-trimethyl-1-propaminium iodide]",concentration of Fluorad FC-135 added in tank-mix to Formulation B to bring its herbicidal performance up to that of Formulation C,"[1]; Example 21, ECHCF, evaluation 20 days after application",approximately 0.25%
same,optimum adjuvant concentration,"[1]; Example 25, tank-mix adjuvant for glyphosate as Formulation B, ECHCF, 21 days after application",0.2%
same,concentration of Fluorad FC-135 added in tank-mix to Formulation B to bring its herbicidal performance up to that of Formulation C,"[2]; Example 21, SIDSP, evaluation 20 days after application",~0.1%
same,concentration of Fluorad FC-135 added in tank-mix to Formulation B to bring its herbicidal performance up to that of Formulation C,"[3]; Example 21, ABUTH, evaluation 20 days after application",~0.02%
same,optimum adjuvant concentration,"[3]; Example 25, tank-mix adjuvant for glyphosate as Formulation B, ABUTH, 21 days after application",0.2%
C[n+]1ccc(-c2cc[n+](C)cc2)cc1 [Paraquat dichloride],inhibition at 25 g/ha,"[1]; Echinochloa crus-galli, 288 h, Table 82, paraquat rate 25 g a.i./ha, evaluation 12 days after application",83%
same,inhibition at 50 g/ha,"[1]; Echinochloa crus-galli, 288 h, Table 82, paraquat rate 50 g a.i./ha, evaluation 12 days after application",78%
same,inhibition at 100 g/ha,"[1]; Echinochloa crus-galli, 288 h, Table 82, paraquat rate 100 g a.i./ha, evaluation 12 days after application",84%
same,inhibition at 200 g/ha,"[1]; Echinochloa crus-galli, 288 h, Table 82, paraquat rate 200 g a.i./ha, evaluation 12 days after application",95%
same,inhibition at 25 g/ha,"[2]; Sida spinosa, 288 h, Table 82, paraquat rate 25 g a.i./ha, evaluation 12 days after application",55%
same,inhibition at 50 g/ha,"[2]; Sida spinosa, 288 h, Table 82, paraquat rate 50 g a.i./ha, evaluation 12 days after application",60%
same,inhibition at 100 g/ha,"[2]; Sida spinosa, 288 h, Table 82, paraquat rate 100 g a.i./ha, evaluation 12 days after application",69%
same,inhibition at 200 g/ha,"[2]; Sida spinosa, 288 h, Table 82, paraquat rate 200 g a.i./ha, evaluation 12 days after application",99%
same,inhibition at 25 g/ha,"[3]; Abutilon theophrasti, 288 h, Table 82, paraquat rate 25 g a.i./ha, evaluation 12 days after application",50%
same,inhibition at 50 g/ha,"[3]; Abutilon theophrasti, 288 h, Table 82, paraquat rate 50 g a.i./ha, evaluation 12 days after application",57%
same,inhibition at 100 g/ha,"[3]; Abutilon theophrasti, 288 h, Table 82, paraquat rate 100 g a.i./ha, evaluation 12 days after application",73%
same,inhibition at 200 g/ha,"[3]; Abutilon theophrasti, 288 h, Table 82, paraquat rate 200 g a.i./ha, evaluation 12 days after application",85%
"O=C(O)CNCP(=O)(O)O [glyphosate, N-phosphonomethylglycine]","herbicidal activity on CHEAL, result in words",[4],very weak
same,"herbicidal activity on SEBEX, result in words",[5],extremely weak
Steareth-20,"herbicidal effectiveness overall (ABUTH and ECHCF), result in words",ABUTH and ECHCF,more effective additives for Formulation B than steareth-10
ceteareth-30,"herbicidal effectiveness overall (ABUTH and ECHCF), result in words",ABUTH and ECHCF,more effective additives for Formulation B than steareth-10
